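Each compound was tested at five concentrations against cells in 96-well plates for 48 hours. TGI is the concentration that stops growth completely.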
How the values were obtained:
Experiment in all cases: NCI tumour cell line growth inhibition, 48 h
KM12 colon = test system: KM12 colon
NCI-H522 lung = test system: NCI-H522 lung
T-47D breast = test system: T-47D breast
786-0 renal = test system: 786-0 renal
MOLT-4 leukemia = test system: MOLT-4 leukemia
HCT-116 colon = test system: HCT-116 colon
HOP-62 NSCLC = test system: HOP-62 NSCLC
OVCAR-4 ovarian = test system: OVCAR-4 ovarian
MDA-N = test system: MDA-N
SR leukemia = test system: SR leukemia
SF-295 CNS = test system: SF-295 CNS
MDA-MB-231 breast = test system: MDA-MB-231 breast
SNB-75 CNS = test system: SNB-75 CNS
SW-620 colon = test system: SW-620 colon
UACC-62 melanoma = test system: UACC-62 melanoma
SK-MEL-2 melanoma = test system: SK-MEL-2 melanoma
PC-3 prostate = test system: PC-3 prostate
MCF7 breast = test system: MCF7 breast
HT29 colon = test system: HT29 colon
RXF 393 renal = test system: RXF 393 renal
SNB-19 CNS = test system: SNB-19 CNS
CAKI-1 renal = test system: CAKI-1 renal
SN12C renal = test system: SN12C renal
HCT-15 colon = test system: HCT-15 colon
A549 NSCLC = test system: A549 NSCLC
IGROV1 ovarian = test system: IGROV1 ovarian
TK-10 renal = test system: TK-10 renal
HCC-2998 colon = test system: HCC-2998 colon
SK-MEL-28 melanoma = test system: SK-MEL-28 melanoma
SK-OV-3 ovarian = test system: SK-OV-3 ovarian
MDA-MB-435 = test system: MDA-MB-435
NCI-H23 lung = test system: NCI-H23 lung
NCI/ADR-RES ovarian = test system: NCI/ADR-RES ovarian
OVCAR-8 ovarian = test system: OVCAR-8 ovarian
M14 melanoma = test system: M14 melanoma
BT-549 breast = test system: BT-549 breast
HL-60(TB) leukemia = test system: HL-60(TB) leukemia
NCI-H226 lung = test system: NCI-H226 lung
HOP-92 NSCLC = test system: HOP-92 NSCLC
COLO 205 colon = test system: COLO 205 colon
NCI-H460 lung = test system: NCI-H460 lung
LOX IMVI melanoma = test system: LOX IMVI melanoma
ACHN renal = test system: ACHN renal
UO-31 renal = test system: UO-31 renal
OVCAR-5 ovarian = test system: OVCAR-5 ovarian
OVCAR-3 ovarian = test system: OVCAR-3 ovarian
HS 578T breast = test system: HS 578T breast
A498 renal = test system: A498 renal
DU-145 prostate = test system: DU-145 prostate
SK-MEL-5 melanoma = test system: SK-MEL-5 melanoma
UACC-257 melanoma = test system: UACC-257 melanoma
U251 CNS = test system: U251 CNS
SF-268 CNS = test system: SF-268 CNS
EKVX NSCLC = test system: EKVX NSCLC
SF-539 CNS = test system: SF-539 CNS
CCRF-CEM leukemia = test system: CCRF-CEM leukemia
K-562 leukemia = test system: K-562 leukemia
MALME-3M melanoma = test system: MALME-3M melanoma
RPMI-8226 leukemia = test system: RPMI-8226 leukemia

Measured: TGI

CCOC(=O)c1sc(N/N=C2\NC(=O)/C(=C/c3ccc([N+](=O)[O-])cc3)S2)nc1C
57.1 µM: KM12 colon
38 µM: HOP-62 NSCLC
51.8 µM: HL-60(TB) leukemia
45.4 µM: T-47D breast
31.1 µM: MOLT-4 leukemia
36.7 µM: HCT-116 colon
66.1 µM: NCI/ADR-RES ovarian
88.2 µM: SN12C renal
35.4 µM: IGROV1 ovarian | CCRF-CEM leukemia
74.6 µM: SNB-75 CNS
56.2 µM: MDA-N
60.5 µM: CAKI-1 renal
40.9 µM: NCI-H522 lung
55.1 µM: NCI-H226 lung
58.3 µM: ACHN renal
42.1 µM: UACC-257 melanoma
40.7 µM: SF-539 CNS
29.4 µM: SR leukemia
58.5 µM: A498 renal
48.5 µM: HCT-15 colon | COLO 205 colon
85.3 µM: HCC-2998 colon
47 µM: UO-31 renal
47.4 µM: DU-145 prostate
48.2 µM: NCI-H460 lung
65.2 µM: OVCAR-8 ovarian
43.4 µM: EKVX NSCLC
84 µM: RXF 393 renal
51 µM: HT29 colon
72.5 µM: MCF7 breast
44.6 µM: HOP-92 NSCLC
80.5 µM: NCI-H23 lung
73.4 µM: UACC-62 melanoma
31 µM: SK-MEL-5 melanoma
46.1 µM: LOX IMVI melanoma
77.3 µM: MDA-MB-435
74.5 µM: BT-549 breast
49.2 µM: MDA-MB-231 breast
81.3 µM: SK-MEL-2 melanoma
49.9 µM: OVCAR-3 ovarian
91.4 µM: PC-3 prostate
33.7 µM: 786-0 renal
not listed: K-562 leukemia | MALME-3M melanoma | RPMI-8226 leukemia
> 100 µM: all other assays above

O=C(Nc1nn(C(=O)c2ccc(Cl)cc2)c(=O)s1)c1ccc(Cl)cc1
not listed: SNB-75 CNS | SK-MEL-2 melanoma | SF-539 CNS | RPMI-8226 leukemia
> 100 µM: all other assays above

CC1(C)CC23CC(C)(C)c4cccc(c42)OCc2ccc4ccc5ccc(nc5c4n2)COc2cccc1c23
> 5 µM: SNB-19 CNS
not listed: RXF 393 renal | NCI-H23 lung | CCRF-CEM leukemia | MALME-3M melanoma
> 50 µM: all other assays above

C=C1c2[nH]c3ccccc3c2C2C(CC)C1CCN2C (stereo not drawn)
37.8 µM: HCC-2998 colon
56.5 µM: MALME-3M melanoma
67.6 µM: M14 melanoma
70 µM: A498 renal
88.8 µM: RPMI-8226 leukemia
77.2 µM: SK-MEL-28 melanoma
58.9 µM: COLO 205 colon
74.8 µM: SR leukemia
95.6 µM: UACC-257 melanoma
not listed: SNB-75 CNS | K-562 leukemia
> 100 µM: all other assays above
